Data as given in patent US20260151492A1 (priority 2022, published 2026).
Where two headings read alike, the source gives them in different places.

Legend:
[1] = target: T1, Sigma 2 (Homo sapiens, UniProt Q5BJF2); settings: literature (Pergolizi, 2023; Bonaventura, 2021); cited from earlier work
[2] = target: T2, DRD2L (Homo sapiens, UniProt P14416); settings: statement on ketamine, no own data shown; cited from earlier work
[3] = test system: Mecp2-null mice; settings: cited from earlier work
[4] = target: T2, DRD2L; test: D2L human dopamine GPCR cell based agonist cAMP assay
[5] = target: Opiate k (Homo sapiens, UniProt P41145); test: Opiate k binding assay
[6] = target: Opiate μ (Homo sapiens, UniProt P35372); test: Opiate μ binding assay
[7] = target: NMDAR 1A/2B (Homo sapiens, UniProt Q05586+Q13224); test: NMDAR 1A/2B antagonist (ion channel blocker) assay; type: cell-based
[8] = target: T1, Sigma 2; test: Sigma 2 binding assay

Sequence of Opiate k (P41145 whole entry): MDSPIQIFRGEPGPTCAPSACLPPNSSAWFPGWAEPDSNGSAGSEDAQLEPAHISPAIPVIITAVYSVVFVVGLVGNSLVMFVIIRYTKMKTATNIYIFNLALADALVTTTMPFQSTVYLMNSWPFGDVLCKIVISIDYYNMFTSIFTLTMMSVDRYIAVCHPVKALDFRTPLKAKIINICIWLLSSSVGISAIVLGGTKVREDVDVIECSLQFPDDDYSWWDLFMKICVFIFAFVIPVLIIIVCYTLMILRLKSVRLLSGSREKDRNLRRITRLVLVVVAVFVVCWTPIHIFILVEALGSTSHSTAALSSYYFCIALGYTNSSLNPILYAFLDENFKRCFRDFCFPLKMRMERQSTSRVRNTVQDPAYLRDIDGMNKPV
T2 sequence (P14416 whole entry): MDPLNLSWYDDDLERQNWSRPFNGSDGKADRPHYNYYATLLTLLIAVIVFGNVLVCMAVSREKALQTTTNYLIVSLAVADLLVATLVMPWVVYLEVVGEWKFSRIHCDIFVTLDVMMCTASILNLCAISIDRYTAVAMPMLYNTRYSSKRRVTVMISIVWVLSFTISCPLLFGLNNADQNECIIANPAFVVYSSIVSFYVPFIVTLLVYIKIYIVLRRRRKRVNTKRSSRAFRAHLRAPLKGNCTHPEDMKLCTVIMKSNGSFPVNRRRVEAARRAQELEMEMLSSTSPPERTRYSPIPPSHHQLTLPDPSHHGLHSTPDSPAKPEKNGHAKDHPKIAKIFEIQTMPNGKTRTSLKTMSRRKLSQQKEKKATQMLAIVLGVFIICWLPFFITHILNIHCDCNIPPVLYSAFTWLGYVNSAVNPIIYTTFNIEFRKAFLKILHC
T1 sequence (Q5BJF2 whole entry): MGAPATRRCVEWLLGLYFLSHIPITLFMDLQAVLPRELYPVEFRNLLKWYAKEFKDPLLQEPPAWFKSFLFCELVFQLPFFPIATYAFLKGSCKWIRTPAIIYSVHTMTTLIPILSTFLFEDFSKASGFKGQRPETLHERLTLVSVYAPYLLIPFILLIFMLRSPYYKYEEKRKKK
Sequence of NMDAR 1A/2B (Q13224 27-1484, other chains not shown): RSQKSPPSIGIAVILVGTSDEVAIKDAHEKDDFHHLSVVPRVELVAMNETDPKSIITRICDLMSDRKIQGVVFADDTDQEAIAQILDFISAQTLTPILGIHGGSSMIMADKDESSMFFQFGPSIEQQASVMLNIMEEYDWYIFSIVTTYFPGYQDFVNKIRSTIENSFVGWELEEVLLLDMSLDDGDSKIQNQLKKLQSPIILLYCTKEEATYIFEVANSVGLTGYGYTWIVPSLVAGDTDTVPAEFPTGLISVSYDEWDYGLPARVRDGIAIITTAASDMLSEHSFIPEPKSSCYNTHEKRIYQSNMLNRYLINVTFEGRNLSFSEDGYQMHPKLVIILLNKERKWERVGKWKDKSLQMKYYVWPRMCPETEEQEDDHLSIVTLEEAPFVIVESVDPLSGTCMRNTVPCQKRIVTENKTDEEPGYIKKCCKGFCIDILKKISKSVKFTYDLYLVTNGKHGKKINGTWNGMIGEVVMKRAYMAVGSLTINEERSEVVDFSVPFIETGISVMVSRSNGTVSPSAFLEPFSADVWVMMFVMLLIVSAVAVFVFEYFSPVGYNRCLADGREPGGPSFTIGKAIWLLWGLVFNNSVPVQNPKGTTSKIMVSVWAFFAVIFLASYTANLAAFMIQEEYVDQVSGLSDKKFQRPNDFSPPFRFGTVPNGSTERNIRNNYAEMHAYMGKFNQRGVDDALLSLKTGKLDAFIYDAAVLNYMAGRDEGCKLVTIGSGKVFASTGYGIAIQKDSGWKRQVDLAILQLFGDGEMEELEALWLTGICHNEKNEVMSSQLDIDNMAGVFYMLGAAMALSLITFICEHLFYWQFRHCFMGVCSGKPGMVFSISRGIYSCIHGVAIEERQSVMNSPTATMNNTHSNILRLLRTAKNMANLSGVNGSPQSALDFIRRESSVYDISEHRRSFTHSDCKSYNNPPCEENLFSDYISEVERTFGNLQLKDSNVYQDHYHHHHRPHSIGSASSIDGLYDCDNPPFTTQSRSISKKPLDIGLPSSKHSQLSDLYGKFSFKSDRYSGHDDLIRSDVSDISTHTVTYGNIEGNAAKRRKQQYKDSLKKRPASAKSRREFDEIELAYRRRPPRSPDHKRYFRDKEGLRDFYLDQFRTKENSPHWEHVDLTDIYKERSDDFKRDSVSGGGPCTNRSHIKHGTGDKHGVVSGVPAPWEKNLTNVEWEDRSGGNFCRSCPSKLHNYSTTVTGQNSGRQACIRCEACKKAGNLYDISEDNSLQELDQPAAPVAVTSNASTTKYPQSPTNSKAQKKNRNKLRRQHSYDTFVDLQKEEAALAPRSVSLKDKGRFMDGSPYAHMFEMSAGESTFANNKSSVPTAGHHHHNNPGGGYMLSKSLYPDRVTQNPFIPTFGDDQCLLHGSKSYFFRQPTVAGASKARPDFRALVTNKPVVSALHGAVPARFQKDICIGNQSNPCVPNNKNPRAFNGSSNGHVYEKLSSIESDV
Sequence of Opiate μ (P35372 whole entry): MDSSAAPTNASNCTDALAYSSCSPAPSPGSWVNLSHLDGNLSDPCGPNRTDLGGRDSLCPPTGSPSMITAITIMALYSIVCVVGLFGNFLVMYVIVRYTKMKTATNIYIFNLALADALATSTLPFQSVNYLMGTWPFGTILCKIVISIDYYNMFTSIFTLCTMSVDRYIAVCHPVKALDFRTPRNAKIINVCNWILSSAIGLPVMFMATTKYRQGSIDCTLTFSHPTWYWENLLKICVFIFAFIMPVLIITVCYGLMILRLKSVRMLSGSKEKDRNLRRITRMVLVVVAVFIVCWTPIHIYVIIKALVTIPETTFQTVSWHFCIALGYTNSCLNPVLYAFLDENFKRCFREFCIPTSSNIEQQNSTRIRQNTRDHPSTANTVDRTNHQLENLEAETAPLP

Row | SMILES | Binding to sigma2 receptors (in words) [1] | Affinity for dopamine 2 receptors (in words) [2] | Improvement of survival ([3]; 8 mg/kg IP every day for 40 days (total 320 mg/kg), at 80 days post natal) [%] | Efficacy of treatment (in words) ([3]; 8 mg/kg/day ip from day 15 to day 55 (320 mg/kg total)) | Efficacy of treatment (in words) ([3]; 8 mg/kg/day ip from day 30 to day 55 (200 mg/kg total)) | Survival ([3]; after treatment with 320 mg/kg of ketamine, published data) [%] | Binding to Dopamine 2 receptors (in words) [4] | IC50 [5] [µM] | Ki [5] [µM] | Ki, Opioid μ receptors [6] | IC50 ([7]; IC50, NMDAR 1A/2B antagonist assay, FIG. 15A) [µM] | IC50 ([7]; NMDAR 1A/2B Ion channel blocker, Table 5) [µM] | IC50 [8] [µM]
1 | CNC1(c2ccccc2Cl)CCCCC1=O (racemic) [Ketamine, (R,S)-ketamine] | binds sigma2 receptors at mM concentrations | not shown any affinity | 50 | some efficacy | not effective | 50 | – | – | – | – | – | – | –
2 | NC1(c2ccccc2Cl)CCCCC1=O (racemic) [NorKetamine, (R,S)-Norketamine] | – | – | – | – | – | – | does not appear to bind | 667 | 381 | does not bind | 6.96 | 6.9 | 246
